The values below come from publication PMC3573960 (Molecular Neurodegeneration, 2012).

The subject of data set [1] is Aph1AL containing γ-secretase complexes. Description: Cell-free AICD production from APP β-CTF (Western blot). It counts as biochemical, murine. The following applies: 10 μM. As for the experimental part: DAPT was used as a reference positive control for the assay. For each assay condition, a 5-μL microsomal fraction, containing 1% CHAPSO (3-[(3-cholamidopropyl)dimethylammonio]-2-hydroxy-1-propanesulfonate) from murine embryonic fibroblasts (MEF) lacking the Aph-1A, Aph-1B, and Aph-1C genes (triple knock out) and rescued with Aph-1AL, was prepared in a reaction mixture of 5 μL substrate (recombinant APP β-CTF 3-Flag-tagged) at 0.8 μM, 0.0125% phosphatidylethanolamine, 0.1%, phosphatidylcholine, 0.05% sphingomyelin, and 8.9 μL PIPES (piperazine-N,N′-bis[−ethanesulfonic acid]) buffer. […] For detection of AICD, one-half of the reaction mixture was purified by a methanol-chloroform extraction in order to remove lipids and hydrophobic proteins (e.g., APP β-CTF). This purified fraction was further analyzed by SDS-PAGE and Western blotting. AICD was detected with an ANTI-FLAG® antibody (Sigma-Aldrich). The other half of the reaction mixture was used to analyze the levels of Aβ1-40 and Aβ1-42 by AlphaLisa (Perkin Elmer, Waltham, MA).

Data set [2] has as its system Tg2576 mice. Also noted: method as in PMID 16192379. The note with it: 100 mg/kg p.o., 3 h before training; cited from earlier work.
Data set [3] deals with Aβ42. Also noted: method as in PMID 15304503. The following applies: cited from earlier work.
The test system of data set [4] is γ-secretase. Description: APP CTF accumulation in H4-APP751 cell lysates (Western blot). The note with it: H4-APP751 cells, 16 h. It counts as cell-based, human. The source says:
Cells were lysed in situ and the resulting lysate cleared of nuclei by centrifugation, as described elsewhere. Samples were fractionated by SDS-PAGE on a 12% NuPage gel (Invitrogen), transferred to a nitrocellulose membrane, and immunoblotted with an anti-APP-CTF antibody (Sigma-Aldrich).

Data set [5] deals with γ-secretase (EphA4). Kind of data set: EphA4 CTF accumulation in rat primary neocortical cultures (Western blot). The note with it: 24 h, as low as 100 nM.
Procedure: Protein concentration of the lysate was determined by the BCA method, and 30 μg of total protein were loaded on a 10% Bis-Tris gel (Invitrogen). EphA4 CTF was visualized using an anti-EphA4-CTF antibody (Abnova, Walnut, CA) and an IRDye800CW® secondary antibody (Rockland Immunochemicals, Inc., Gilbertsville, PA). Detection was performed using an Odyssey scanner (LiCor Biosciences) and blots quantified using ImageJ software (available at http://rsbweb.nih.gov/ij).
Data set [6] concerns AD patients. Details: method as in PMID 18695053, PMID 21222550, PMID 22323718. The following applies: cited from earlier work.
The subject of data set [7] is Tg2576 mice. Also noted: method as in PMID 10908610, PMID 12930788. The note with it: diet of 375 ppm for 4–6 months; cited from earlier work.

Each structure is given as a SMILES string.

As to `C[C@H](NC(=O)Cc1cc(F)cc(F)c1)C(=O)N[C@H](C(=O)OC(C)(C)C)c1ccccc1` [DAPT, N-(N-(3,5-difluorophenacetyl)-L-alanyl)-S-phenylglycine t-butyl ester, reference compound], the “production of AICD from APP β-CTF” value in data set [1] is reported as “almost completely abolished”. For the same compound, in data set [2], the CFC cognitive deficit result is on record as “rapidly improved the CFC cognitive deficit”.

For the compound `C[C@@H](C(=O)O)c1ccc(-c2ccccc2)c(F)c1` [Flurizan™], the 50% inhibitory concentration (IC50) in data set [3] is greater than 300 µM. For the compound `C[C@H](NC(=O)[C@@H](O)c1cc(F)cc(F)c1)C(=O)N[C@@H]1C(=O)N(C)c2ccccc2-c2ccccc21` [LY-411,575, reference compound], in data set [4] (1 nM to 10 μM), the “Full length APP” value is listed as “not altered”. Further, in data set [4] (concentration as low as 1 nM), the “accumulation of APP α- or β-CTFs” value is on record as “led to their accumulation”. Moreover, the “EphA4 CTF accumulation” value in data set [5] is “led to EphA4 CTF accumulation”. As for `CC(C)[C@H](O)C(=O)N[C@@H](C)C(=O)N[C@@H]1C(=O)N(C)CCc2ccccc21` [Semegacestat], the “toxicities in clinical trials in AD” value in data set [6] is “drug-related rashes, lightening of hair color, skin cancer, and more importantly, worsening of cognition and the ability to perform activities of daily living”. As to `CC(C)Cc1ccc(C(C)C(=O)O)cc1` (centres unmarked) [ibuprofen], in data set [7], the “amyloid plaque load and inflammatory mediators” value is listed as “marked decrease”.
